Assay results reported in article PMC2848298 (Bioorganic & medicinal chemistry letters, 2010).
Like-named read-outs stand apart in the source and are kept apart here.

Legend:
[1] = target: T1, ABCG2 (Homo sapiens, UniProt Q9UNQ0)
T1 sequence (Q9UNQ0 1-655): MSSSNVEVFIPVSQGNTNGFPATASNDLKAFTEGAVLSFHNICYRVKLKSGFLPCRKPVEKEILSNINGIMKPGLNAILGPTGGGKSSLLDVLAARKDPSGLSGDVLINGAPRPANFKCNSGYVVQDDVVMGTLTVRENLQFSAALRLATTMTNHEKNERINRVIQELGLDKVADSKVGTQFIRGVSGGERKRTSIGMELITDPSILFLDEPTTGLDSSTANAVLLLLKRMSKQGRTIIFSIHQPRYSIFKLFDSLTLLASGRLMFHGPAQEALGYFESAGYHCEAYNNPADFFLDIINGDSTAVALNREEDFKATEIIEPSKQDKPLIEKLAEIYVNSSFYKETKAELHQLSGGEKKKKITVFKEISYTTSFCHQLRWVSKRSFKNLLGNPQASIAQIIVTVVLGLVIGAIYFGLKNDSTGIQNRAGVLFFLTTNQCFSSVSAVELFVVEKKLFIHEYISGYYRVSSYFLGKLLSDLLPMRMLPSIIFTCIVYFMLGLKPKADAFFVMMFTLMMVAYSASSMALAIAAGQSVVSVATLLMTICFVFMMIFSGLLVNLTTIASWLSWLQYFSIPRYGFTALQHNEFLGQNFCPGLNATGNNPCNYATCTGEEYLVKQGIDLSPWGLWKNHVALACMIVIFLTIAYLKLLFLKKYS

[2] = test system: P-glycoprotein (P-gp); settings: cited from earlier work
[3] = target: T1, ABCG2; test: Cellular accumulation of the ABCG2 substrate pheophorbide-a; settings: PhA accumulation assay

Compound	ABCG2 inhibitory activity (in words) [3]	also measured
2-methoxy-p-coumaric acid [compound 8]	–	ABCG2 inhibitory activity (in words) [1]: inactive
CO/C(=C\c1ccc(O)cc1)C(=O)N/C=C/c1cc(Br)c(OC)c(Br)c1 [botryllamide A, reference compound]	–	Inhibition of export of rhodamine by P-gp [2]: inhibited the export of rhodamine
CO/C(=C\c1ccc(O)cc1)C(=O)N/C=C/c1cc(Br)c(O)c(Br)c1 [botryllamide G]	–	Inhibition of efflux of rhodamine out of P-gp-overexpressing cells ([2]; at 50 μM): not the efflux of rhodamine
CO/C(=C\c1ccc(O)cc1)C(=O)NCC(O)c1ccc(O)cc1 (centres unmarked) [compound 9]	inactive	–
O=C(/C=C/c1ccc(O)cc1)N/C=C/c1ccc(O)cc1 [compound 18]	–	ABCG2 inhibitory activity (in words) ([3]; at 100 μM): inactive
CO/C(=C\c1ccc(O)c(O)c1)C(=O)N/C=C/c1ccc(O)cc1 [compound 21]	retained inhibitory activity	–
CO/C(=C\c1cc(Br)c(O)c(Br)c1)C(=O)N/C=C/c1ccc(O)cc1 [compound 22]	observed inhibitory activity	–
CO/C(=C\c1cc(Br)c(O)c(Br)c1)C(=O)N/C=C/c1ccc(OC(C)=O)cc1 [compound 23]	observed inhibitory activity	–
